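Test compounds were applied to cells in 96-well plates for 48 hours at 5 doses. At the GI50, growth is halved. TGI: total growth inhibition.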
Assays:
Experiment in all cases: NCI anticancer screen, dose series, 48 h
[1] = tested on: NCI/ADR-RES ovarian
[2] = tested on: SNB-19 CNS
[3] = tested on: EKVX NSCLC
[4] = tested on: HOP-92 NSCLC
[5] = tested on: UACC-257 melanoma
[6] = tested on: NCI-H522 lung
[7] = tested on: NCI-H23 lung
[8] = tested on: HCT-116 colon
[9] = tested on: LOX IMVI melanoma
[10] = tested on: UACC-62 melanoma
[11] = tested on: HT29 colon
[12] = tested on: NCI-H226 lung
[13] = tested on: SF-268 CNS
[14] = tested on: HOP-62 NSCLC
[15] = tested on: NCI-H460 lung
[16] = tested on: SW-620 colon
[17] = tested on: SK-MEL-2 melanoma
[18] = tested on: A498 renal
[19] = tested on: MALME-3M melanoma
[20] = tested on: HCT-15 colon
[21] = tested on: KM12 colon
[22] = tested on: A549 NSCLC
[23] = tested on: MDA-MB-435
[24] = tested on: SF-295 CNS
[25] = tested on: MOLT-4 leukemia
[26] = tested on: UO-31 renal
[27] = tested on: RPMI-8226 leukemia
[28] = tested on: U251 CNS
[29] = tested on: MCF7 breast
[30] = tested on: BT-549 breast
[31] = tested on: ACHN renal
[32] = tested on: MDA-MB-231 breast
[33] = tested on: DU-145 prostate
[34] = tested on: OVCAR-3 ovarian
[35] = tested on: HL-60(TB) leukemia
[36] = tested on: 786-0 renal
[37] = tested on: T-47D breast
[38] = tested on: SF-539 CNS
[39] = tested on: SR leukemia
[40] = tested on: COLO 205 colon
[41] = tested on: K-562 leukemia
[42] = tested on: SNB-75 CNS
[43] = tested on: OVCAR-4 ovarian
[44] = tested on: M14 melanoma
[45] = tested on: SK-MEL-5 melanoma
[46] = tested on: SN12C renal
[47] = tested on: OVCAR-8 ovarian
[48] = tested on: SK-OV-3 ovarian
[49] = tested on: PC-3 prostate
[50] = tested on: RXF 393 renal
[51] = tested on: TK-10 renal
[52] = tested on: CCRF-CEM leukemia
[53] = tested on: HCC-2998 colon
[54] = tested on: SK-MEL-28 melanoma
[55] = tested on: IGROV1 ovarian
[56] = tested on: CAKI-1 renal
[57] = tested on: HS 578T breast
[58] = tested on: OVCAR-5 ovarian

CN(C)c1ccc(/C=N/NC(N)=S)nc1
GI50 [1]: 4.08 µM
TGI [1]: > 100 µM
GI50 [2]: 5.64 µM
TGI [2]: > 100 µM
GI50 [3]: 3.09 µM
TGI [3]: > 100 µM
GI50 [4]: > 100 µM
TGI [4]: > 100 µM
GI50 [5]: 24.4 µM
TGI [5]: > 100 µM
GI50 [6]: 1.2 µM
TGI [6]: > 100 µM
GI50 [7]: 2.39 µM
TGI [7]: > 100 µM
GI50 [8]: 3.3 µM
TGI [8]: > 100 µM
GI50 [9]: 2.71 µM
TGI [9]: > 100 µM
GI50 [10]: 3.39 µM
TGI [10]: > 100 µM
GI50 [11]: 4.46 µM
TGI [11]: > 100 µM
GI50 [12]: 3.54 µM
TGI [12]: 52.7 µM
GI50 [13]: 2.22 µM
TGI [13]: 28.2 µM
GI50 [14]: 3.11 µM
TGI [14]: > 100 µM
GI50 [15]: 2.89 µM
TGI [15]: 29.3 µM
GI50 [16]: 3.14 µM
TGI [16]: > 100 µM
GI50 [17]: > 100 µM
TGI [17]: > 100 µM
GI50 [18]: 1.92 µM
TGI [18]: 9.37 µM
GI50 [19]: 7.91 µM
TGI [19]: > 100 µM
GI50 [20]: 4.11 µM
TGI [20]: > 100 µM
GI50 [21]: 3.49 µM
TGI [21]: > 100 µM
GI50 [22]: 4.61 µM
TGI [22]: > 100 µM
GI50 [23]: 4.01 µM
TGI [23]: > 100 µM
GI50 [24]: 2.91 µM
TGI [24]: 16.1 µM
GI50 [25]: 2.92 µM
TGI [25]: 95.1 µM
GI50 [26]: 2.34 µM
TGI [26]: 7.46 µM
GI50 [27]: 3.21 µM
TGI [27]: > 100 µM
GI50 [28]: 3.99 µM
TGI [28]: > 100 µM
GI50 [29]: 1.64 µM
TGI [29]: > 100 µM
GI50 [30]: 4.39 µM
TGI [30]: > 100 µM
GI50 [31]: 2.55 µM
TGI [31]: > 100 µM
GI50 [32]: 5.43 µM
TGI [32]: > 100 µM
GI50 [33]: 2.45 µM
TGI [33]: 16.3 µM
GI50 [34]: 2.54 µM
TGI [34]: > 100 µM
GI50 [35]: 1.8 µM
TGI [35]: 37.9 µM
GI50 [36]: 3.33 µM
TGI [36]: 9.68 µM
GI50 [37]: 4.32 µM
TGI [37]: > 100 µM
GI50 [38]: 1.81 µM
TGI [38]: > 100 µM
GI50 [39]: 2.73 µM
TGI [39]: > 100 µM
GI50 [40]: 4.27 µM
TGI [40]: > 100 µM
GI50 [41]: 4.54 µM
TGI [41]: > 100 µM
GI50 [42]: 1.82 µM
TGI [42]: > 100 µM
GI50 [43]: 4.3 µM
TGI [43]: > 100 µM
GI50 [44]: 2.28 µM
TGI [44]: 5.23 µM
GI50 [45]: 2.52 µM
TGI [45]: > 100 µM
GI50 [46]: 3.51 µM
TGI [46]: > 100 µM
GI50 [47]: 3.24 µM
TGI [47]: > 100 µM
GI50 [48]: 4.5 µM
TGI [48]: > 100 µM
GI50 [49]: 3.76 µM
TGI [49]: > 100 µM
GI50 [50]: 4.16 µM
TGI [50]: > 100 µM
GI50 [51]: 7.61 µM
TGI [51]: > 100 µM
GI50 [52]: 2.82 µM
TGI [52]: 21.8 µM
GI50 [53]: 3.35 µM
TGI [53]: > 100 µM
GI50 [54]: 17.9 µM
TGI [54]: > 100 µM

Cc1cc(OCc2nnc3n2S(=O)(=O)c2ccccc2N3C)ccc1Cl
TGI [1]: > 100 µM
TGI [2]: 39.1 µM
TGI [3]: > 100 µM
TGI [4]: 36.4 µM
TGI [5]: > 100 µM
TGI [6]: 45.6 µM
TGI [7]: > 100 µM
TGI [8]: > 100 µM
TGI [9]: > 100 µM
TGI [10]: 52.9 µM
TGI [11]: > 100 µM
TGI [12]: > 100 µM
TGI [13]: 68 µM
TGI [14]: 29.7 µM
TGI [15]: > 100 µM
TGI [55]: > 100 µM
TGI [16]: > 100 µM
TGI [17]: > 100 µM
TGI [18]: 55.3 µM
TGI [20]: > 100 µM
TGI [21]: > 100 µM
TGI [22]: > 100 µM
TGI [23]: > 100 µM
TGI [24]: 50.2 µM
TGI [25]: > 100 µM
TGI [26]: > 100 µM
TGI [56]: > 100 µM
TGI [28]: 43.6 µM
TGI [29]: > 100 µM
TGI [30]: 36.4 µM
TGI [31]: 53 µM
TGI [32]: 41.7 µM
TGI [33]: > 100 µM
TGI [57]: > 100 µM
TGI [34]: 57.2 µM
TGI [35]: 55.1 µM
TGI [36]: 32.7 µM
TGI [37]: > 100 µM
TGI [38]: 38.6 µM
TGI [40]: > 100 µM
TGI [41]: > 100 µM
TGI [43]: 24.2 µM
TGI [44]: > 100 µM
TGI [45]: > 100 µM
TGI [46]: > 100 µM
TGI [47]: > 100 µM
TGI [48]: 37.4 µM
TGI [49]: > 100 µM
TGI [50]: 60.1 µM
TGI [51]: > 100 µM
TGI [58]: > 100 µM
TGI [52]: 38 µM
TGI [53]: > 100 µM
TGI [54]: > 100 µM

CC1CCN(C(C)C)P(=S)(Cc2ccccc2)O1 (stereo unspecified)
TGI [1]: > 100 µM
TGI [2]: > 100 µM
TGI [3]: > 100 µM
TGI [5]: > 100 µM
TGI [7]: > 100 µM
TGI [8]: > 100 µM
TGI [9]: > 100 µM
TGI [10]: > 100 µM
TGI [11]: > 100 µM
TGI [12]: > 100 µM
TGI [13]: > 100 µM
TGI [14]: > 100 µM
TGI [15]: > 100 µM
TGI [55]: > 100 µM
TGI [16]: > 100 µM
TGI [17]: > 100 µM
TGI [19]: > 100 µM
TGI [20]: > 100 µM
TGI [21]: > 100 µM
TGI [22]: > 100 µM
TGI [23]: > 100 µM
TGI [24]: > 100 µM
TGI [25]: > 100 µM
TGI [26]: > 100 µM
TGI [56]: > 100 µM
TGI [27]: > 100 µM
TGI [28]: > 100 µM
TGI [29]: > 100 µM
TGI [30]: > 100 µM
TGI [31]: > 100 µM
TGI [32]: > 100 µM
TGI [33]: > 100 µM
TGI [34]: > 100 µM
TGI [36]: > 100 µM
TGI [37]: 56.8 µM
TGI [38]: > 100 µM
TGI [39]: > 100 µM
TGI [40]: > 100 µM
TGI [41]: > 100 µM
TGI [43]: > 100 µM
TGI [44]: > 100 µM
TGI [45]: > 100 µM
TGI [47]: > 100 µM
TGI [48]: > 100 µM
TGI [49]: > 100 µM
TGI [51]: > 100 µM
TGI [58]: > 100 µM
TGI [53]: > 100 µM
TGI [54]: 40 µM

Reference: PubChem BioAssay (NCI)
